Measurements reported in PubChem BioAssay AID2060599 (Molecular Pharmacology Branch, DTP, NCI, 2025).
Several values for one entry are separate records, joined by “and”; a condition that tells them apart may be missing. Equal values may be shown once.

Tested on: 817829-284-R-J1-PDC complex spheroids, viability
Assay: Anticancer human tumor 817829-284-R-J1-PDC patient-derived colon adenocarcinoma cell line growth inhibition [CLK]
Settings: for viability, T/C: stronger effect = lower value; active = viability on the fitted dose curve at most 10% of control; inactive = the rest
Source text: A high-throughput screen of multi-cell type tumor spheroids was designed to identify active combinations of […] and targeted small molecules. Complex spheroids include a stromal component modeled by human endothelial cells (HUVEC) and fibroblasts modeled by human mesenchymal stem cells (MSCs). The concentration ranges selected for each drug and investigational agent were based upon clinically achievable concentrations if the clinical Cmax of the agent was known.
Compounds. The drugs and investigational agents: cirtuvivint (SM08502; NSC835563), CC-671 (NSC850746), vemurafenib (NSC761431), tapotoclax (NSC804041), sotorasib (NSC818433), adagrasib (NSC831453), MRTX-1133 (NSC836407), BAY2416964 (NSC825713), copanlisib (NSC816437), inavolisib (NSC800729), abemaciclib (NSC768073), osimertinib (NSC779217), entinostat (NSC756642), eltanexor (KPT-8602, NSC794443), venetoclax (NSC766270), ceralasertib (NSC777638), bortezomib (NSC756655), olaparib (NSC753686), talazoparib (NSC767125), alisertib (NSC759677), peposertib (NSC802822), gemcitabine (NSC613327), 5-fluorouracil (NSC19893), SN-38 (NSC673596), oxaliplatin (NSC266046), paclitaxel (NSC125973), and doxorubicin (NSC123127), were obtained from the National Cancer Institute (NCI) Developmental Therapeutics Program Chemical Repository. The FDA-approved anticancer drug set is available from the Developmental Therapeutics Program at https://dtp.cancer.gov/organization/dscb/obtaining/available plates.htm. […] The stock solutions were prepared in dimethyl sulfoxide (DMSO, Sigma-Aldrich, St. Louis, MO, cat. D2650), except for the platinum complexes which were prepared in saline (Quality Biological, Gaithersburg, MD, cat. 114-055-101), at 800-fold the tested concentration and stored at -70 degrees C prior to their use. All drugs and investigational agents were tested over a range starting from a high concentration at or near the clinical Cmax and decreasing in half-log increments. If the clinical Cmax for an agent had not been determined, the highest concentration tested was 10 microM.
Cell Culture. All cells were maintained in an incubator at 37 degrees C and 5% CO2 with 95% humidity. The PDC lines were cultured according to standard operating procedures established by the NCI PDMR. Briefly, all PDCs were thawed and cultured in Matrigel-coated flasks prepared with a working solution of 1X Ham's F-12 nutrient mix, without supplementation (Invitrogen, Waltham, MA, cat. 11765054), 100 U/mL penicillin-streptomycin (Invitrogen, cat. 15140122), and 2.5% Matrigel (Corning Inc., Corning, NY, cat. 354248) for the first three passages. The 947758-054-R-J2-PDC line was cultured in 6B/Colon 1A media, which includes advanced DMEM/F-12 (Thermo Fisher Scientific, cat. 12634028), 10 mM HEPES (Thermo Fisher Scientific, cat. 15630080), 1X GlutaMAX supplement (Thermo Fisher Scientific, cat. 35050061), 0.1 mg/mL primocin (InvivoGen, cat. ant-pm-2), 10% defined fetal bovine serum, heat inactivated (HyClone Laboratories Inc., cat. SH30070.03HI), 1.25 mM N-Acetyl-L-cysteine (Sigma-Aldrich, cat. A9165), 10 mM nicotinamide (Sigma-Aldrich, cat. N0636), 1X B-27 supplement (Thermo Fisher Scientific, cat. 17504044), 1X N-2 supplement (Thermo Fisher Scientific, cat. 17502048), and 10 microM Y-27632 dihydrochloride (Tocris Bioscience, cat. 1254). The 876862-298-R-J1-PDC was cultured in 6E media, which includes all 6B/Colon 1A media components plus 50% L-WRN conditioned media (ATCC, cat. CRL-3276), 50 ng/mL recombinant human EGF recombinant protein (hEGF; Thermo Fisher Scientific, cat. PHG0311), 10 ng/mL recombinant human fibroblast growth factor 10 (hGFG-10; PeproTech, cat. 100-26), 1 ng/mL recombinant human fibroblast growth factor 2 (hFGF-2; PeproTech, cat. 100-18B), and 1 µM prostaglandin E2 (PGE2; Tocris, cat. 2296). The 227483-062-R1-J1-PDC line was cultured in Panc media, containing all 6E components except hFGF-2, with the addition of 500 nM SB-431542 (Selleckchem, cat. S1067) and 10 nM gastrin (Tocris, cat. 3006). […]

[1] = curve of first compound, second compound 0.0316 µM
[2] = curve of first compound, second compound 0.1 µM
[3] = curve of first compound, second compound 0.316 µM
[4] = curve of first compound, second compound 1 µM
[5] = curve of first compound, second compound 3.16 µM
[6] = curve of first compound, second compound 10 µM
[7] = second compound 0.0316 µM, first compound 0.0316 µM
[8] = second compound 0.0316 µM, first compound 0.1 µM
[9] = second compound 0.0316 µM, first compound 0.316 µM
[10] = second compound 0.0316 µM, first compound 1 µM
[11] = second compound 0.0316 µM, first compound 3.16 µM
[12] = second compound 0.0316 µM, first compound 10 µM
[13] = second compound 0.1 µM, first compound 0.0316 µM
[14] = second compound 0.1 µM, first compound 0.1 µM
[15] = second compound 0.1 µM, first compound 0.316 µM
[16] = second compound 0.1 µM, first compound 1 µM
[17] = second compound 0.1 µM, first compound 3.16 µM
[18] = second compound 0.1 µM, first compound 10 µM
[19] = second compound 0.316 µM, first compound 0.0316 µM
[20] = second compound 0.316 µM, first compound 0.1 µM
[21] = second compound 0.316 µM, first compound 0.316 µM
[22] = second compound 0.316 µM, first compound 1 µM
[23] = second compound 0.316 µM, first compound 3.16 µM
[24] = second compound 0.316 µM, first compound 10 µM
[25] = second compound 1 µM, first compound 0.0316 µM
[26] = second compound 1 µM, first compound 0.1 µM
[27] = second compound 1 µM, first compound 0.316 µM
[28] = second compound 1 µM, first compound 1 µM
[29] = second compound 1 µM, first compound 3.16 µM
[30] = second compound 1 µM, first compound 10 µM
[31] = second compound 3.16 µM, first compound 0.0316 µM
[32] = second compound 3.16 µM, first compound 0.1 µM
[33] = second compound 3.16 µM, first compound 0.316 µM
[34] = second compound 3.16 µM, first compound 1 µM
[35] = second compound 3.16 µM, first compound 3.16 µM
[36] = second compound 3.16 µM, first compound 10 µM
[37] = second compound 10 µM, first compound 0.0316 µM
[38] = second compound 10 µM, first compound 0.1 µM
[39] = second compound 10 µM, first compound 0.316 µM
[40] = second compound 10 µM, first compound 1 µM
[41] = second compound 10 µM, first compound 3.16 µM
[42] = second compound 10 µM, first compound 10 µM
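Also: spheroids exposed to the agents for seven days before readout.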

O=C(c1cc(Cc2n[nH]c(=O)c3ccccc23)ccc1F)N1CCN(C(=O)C2CC2)CC1 + CN1CCN(c2cc(C(=O)Nc3cc4cc(-c5cnn(C)c5)ccc4cn3)ccn2)CC1
inactive: viability, T/C [7] 49.4% | viability, T/C [8] 44.3% | viability, T/C [9] 46.2% | viability, T/C [10] 45.6% | viability, T/C [11] 36.7% | viability, T/C [12] 26.6% | viability, T/C [13] 15.5% | viability, T/C [14] 19.8% | viability, T/C [15] 18.6% | viability, T/C [16] 20.7% | viability, T/C [17] 17.8% | viability, T/C [18] 18.6%
< 31.6 nM: IC50 [1] | IC50 [2] | IC50 [3] | IC50 [4] | IC50 [5] | IC50 [6]
active: viability, T/C [19] 1.83% | viability, T/C [20] 1.77% | viability, T/C [21] 2.03% | viability, T/C [22] 1.63% | viability, T/C [23] 1.4% | viability, T/C [24] 1.54% | viability, T/C [25] 0.12% | viability, T/C [26] 0.1% | viability, T/C [27] 0.12% | viability, T/C [28] 0.09% | viability, T/C [29] 0.12% | viability, T/C [30] 0.09% | viability, T/C [31] 0.2% | viability, T/C [32] 0.18% | viability, T/C [33] 0.17% | viability, T/C [34] 0.16% | viability, T/C [35] 0.23% | viability, T/C [36] 0.22% | viability, T/C [37] 0.06% | viability, T/C [38] 0.08% | viability, T/C [39] 0.15% | viability, T/C [40] 0.09% | viability, T/C [41] 0.18% | viability, T/C [42] 0.15%

COC1C=CCC(C)C(C)S(=O)(=O)NC(=O)c2ccc3c(c2)N(CC2CCC21)CC1(CCCc2cc(Cl)ccc21)CO3 (stereo unspecified)
inactive: viability, T/C (compound 0.0316 µM) 125% and 85.6% | viability, T/C (compound 0.1 µM) 98.4% and 97.6% | viability, T/C (compound 0.316 µM) 90.7% and 66.9% | viability, T/C (compound 1 µM) 91.7% and 93.4% | viability, T/C (compound 3.16 µM) 65.8% and 79%
4090 nM and 5030 nM: IC50 (curve of compound)
8.51% and 6.66%: viability, T/C (compound 10 µM)

COc1ccc([C@@H](O)c2cc(-c3ncnc4cc(N5CCOCC5)ccc34)c(F)cc2Cl)nn1 + CN1CCN(c2cc(C(=O)Nc3cc4cc(-c5cnn(C)c5)ccc4cn3)ccn2)CC1
active: viability, T/C [18] 6.42% | viability, T/C [19] 1.6% | viability, T/C [20] 2.02% | viability, T/C [21] 2.05% | viability, T/C [22] 1.33% | viability, T/C [23] 1% | viability, T/C [24] 0.54% | viability, T/C [25] 0.08% | viability, T/C [26] 0.13% | viability, T/C [27] 0.1% | viability, T/C [28] 0.06% | viability, T/C [29] 0.1% | viability, T/C [30] 0.07% | viability, T/C [31] 0.14% | viability, T/C [32] 0.14% | viability, T/C [33] 0.19% | viability, T/C [34] 0.11% | viability, T/C [35] 0.13% | viability, T/C [36] 0.16% | viability, T/C [37] 0.09% | viability, T/C [38] 0.06% | viability, T/C [39] 0.13% | viability, T/C [40] 0.08% | viability, T/C [41] 0.15% | viability, T/C [42] 0.12%
429 nM: IC50 [1]
< 31.6 nM: IC50 [2] | IC50 [3] | IC50 [4] | IC50 [5] | IC50 [6]
inactive: viability, T/C [7] 79.8% | viability, T/C [8] 69% | viability, T/C [9] 59.6% | viability, T/C [10] 29.3% | viability, T/C [11] 19.4% | viability, T/C [12] 10.3% | viability, T/C [13] 15.4% | viability, T/C [14] 17.1% | viability, T/C [15] 14.9% | viability, T/C [16] 13% | viability, T/C [17] 11.8%
